Data from patent US10906899B2, “Bicyclic fused pyrazole derivatives for the treatment of RSV” (GEORGIA STATE UNIVERSITY RESEARCH FOUNDATION, INC., priority 2016, dated 2021).

Each compound was assayed on RSV (assay: Dose-response counterscreen: luciferase reporter virus infection of BEAS-2B cells (EC50)). Settings: human respiratory syncytial virus, A series compounds, anti-RSV potency, read-out: Potency Range (EC50 values).
Type: cell-based, respiratory syncytial virus (RSV)

`COc1cc(C2CC(=O)Nc3c2cnn3-c2nc3ccccc3s2)ccc1OC1CCCC1` (centres unmarked) [AVG-006, 1-(benzo[d]thiazol-2-yl)-4-(4-(cyclopentyloxy)-3-methoxyphenyl)-4,5-dihydro-1H-pyrazolo[3,4-b]pyridin-6(7H)-one] and `COc1cc(C2CC(=O)Nc3nn(-c4nc5ccccc5s4)cc32)ccc1OC1CCCC1` (centres unmarked) [AVG-006b] fall in the same range of EC50: 1 to 10 µM for the first, 1 to 10 µM for the second.

`COc1ccc(C2CC(=O)Nc3c2cnn3-c2ccccc2)cc1OC1CCCC1` (centres unmarked) [AVG-065, 4-(3-(cyclopentyloxy)-4-methoxyphenyl)-1-phenyl-4,5-dihydro-1H-pyrazolo[3,4-b] pyridin-6(7H)-one] and `COc1cc(C2CC(=O)Nc3c2cnn3-c2ccccc2)ccc1OC1CCCC1` (centres unmarked) [AVG-066] fall in the same range of EC50: 10 to 20 µM for the first, 10 to 20 µM for the second.

First: COc1ccc(C2CC(=O)Nc3nn(-c4ccccc4)cc32)cc1OC1CCCC1 (centres unmarked) [AVG-065b]
Second: COc1ccc(C2CC(=O)Nc3nn(-c4ccccn4)cc32)cc1OC1CCCC1 (centres unmarked) [AVG-117]
The EC50 of the first is lower: 1 to 10 µM for the first, 10 to 20 µM for the second. The first is the more potent here.

First: COc1ccc(-c2cc(=O)[nH]c3c2cnn3-c2ccccc2)cc1OC1CCCC1 [AVG-067, 4-(3-(cyclopentyloxy)-4-methoxyphenyl)-1-phenyl-1H-pyrazolo[3,4-b]pyridine-6(7H)-one]
Second: COc1ccc(C2CC(=O)Nc3c2cnn3-c2ccccn2)cc1OC1CCCC1 (centres unmarked) [AVG-116]
The EC50 of the first is higher: > 20 µM for the first, 1 to 10 µM for the second.

Compared with `COc1ccc(Cn2ncc3c2NC(=O)CC3c2ccc(OC)c(OC3CCCC3)c2)c(OC)c1` (centres unmarked) [AVG-068, 4-(3-(cyclopentyloxy)-4-methoxyphenyl)-1-(2,4-dimethoxybenzyl)-4,5-dihydro-1H-pyrazolo[3,4-b]pyridin-6(7H)-one], `COc1ccc(C2CC(=O)Nc3[nH]ncc32)cc1OC1CCCC1` (centres unmarked) [AVG-069, 4-(3-(cyclopentyloxy)-4-methoxyphenyl)-4,5-dihydro-1H-pyrazolo[3,4-b]pyridin-6(7H)-one] is higher in EC50: 1 to 10 µM for the first, > 20 µM for the second.

Same assay, conditions: human respiratory syncytial virus, B series compounds, read-out: Potency Range (EC50 values)

`Cc1c2c(=O)n(-c3nc4ccccc4s3)n(Cc3ccccc3)c2cc(=O)n1Cc1ccco1` [AVG-021, 2-(benzo[d]thiazol-2-yl)-1-benzyl-5-(furan-2-ylmethyl)-4-methyl-1H-pyrazolo[4,3-c] pyridine-3,6(2H,5H)-dione] and `Cc1c2c(=O)n(-c3nc4ccccc4s3)n(Cc3cccnc3)c2cc(=O)n1Cc1ccco1` [AVG-120] fall in the same range of EC50: 1 to 10 µM for the first, 1 to 10 µM for the second.

First: Cc1c2c(=O)n(-c3nc4ccccc4s3)[nH]c2cc(=O)n1Cc1ccco1 [AVG-022, 2-(benzo[d]thiazol-2-yl)-5-(furan-2-ylmethyl)-4-methyl-1H-pyrazolo[4,3-c]pyridine-3,6(2H, 5H)-dione]
Second: Cc1c2c(=O)n(-c3nc4ccccc4s3)n(C)c2cc(=O)n1Cc1ccco1 [AVG-023]
The EC50 of the first is lower: 0.1 to 1 µM for the first, > 20 µM for the second. The first is the more potent here.

`Cc1c2c(=O)n(-c3nc4ccccc4s3)n(CC3CCCCC3)c2cc(=O)n1Cc1ccco1` [AVG-024] and `Cc1c2c(=O)n(-c3nc4ccccc4s3)n(CC3CCCC3)c2cc(=O)n1Cc1ccco1` [AVG-071] fall in the same range of EC50: 1 to 10 µM for the first, 1 to 10 µM for the second.

`Cc1c2c(=O)n(-c3nc4ccccc4s3)n(CC3CCOCC3)c2cc(=O)n1Cc1ccco1` [AVG-025] and `Cc1c2c(=O)n(-c3nc4ccccc4s3)n(CC3CCCOC3)c2cc(=O)n1Cc1ccco1` (centres unmarked) [AVG-072] fall in the same range of EC50: 1 to 10 µM for the first, 1 to 10 µM for the second.

Compared with `Cc1c2c(=O)n(-c3nc4ccccc4s3)n(CC3CCNCC3)c2cc(=O)n1Cc1ccco1` [AVG-026], `Cc1c2c(=O)n(-c3nc4ccccc4s3)n(CC3CCN(C)CC3)c2cc(=O)n1Cc1ccco1` [AVG-027] is higher in EC50: 1 to 10 µM for the first, 10 to 20 µM for the second.

`Cc1c2c(=O)n(-c3nc4ccccc4s3)n(Cc3ccccc3)c2cc(=O)n1CCN1CCOCC1` [AVG-028] and `Cc1c2c(=O)n(-c3nc4ccccc4s3)n(Cc3ccccc3)c2cc(=O)n1CC1CCOCC1` [AVG-040] fall in the same range of EC50: 1 to 10 µM for the first, 1 to 10 µM for the second.

`Cc1c2c(=O)n(-c3nc4ccccc4s3)n(C)c2cc(=O)n1CCN1CCOCC1` [AVG-029] and `Cc1c2c(=O)n(-c3nc4ccccc4s3)n(C)c2cc(=O)n1Cc1ccccn1` [AVG-037] cannot be ordered by EC50: > 20 µM for the first, > 20 µM for the second.

`Cc1c2c(=O)n(-c3nc4ccccc4s3)n(Cc3ccccc3)c2cc(=O)n1Cc1ccc(Cl)cc1` [AVG-031] and `Cc1c2c(=O)n(-c3nc4ccccc4s3)n(Cc3ccccc3)c2cc(=O)n1Cc1cccc(Cl)c1` [AVG-077] fall in the same range of EC50: 0.1 to 1 µM for the first, 0.1 to 1 µM for the second.

Compared with `Cc1c2c(=O)n(-c3nc4ccccc4s3)n(C)c2cc(=O)n1Cc1ccc(Cl)cc1` [AVG-032], `Cc1c2c(=O)n(-c3nc4ccccc4s3)n(Cc3ccccc3)c2cc(=O)n1Cc1ccc(Cl)cn1` [AVG-095] is lower in EC50: > 20 µM for the first, 1 to 10 µM for the second.

Compared with `Cc1nc(-n2c(=O)c3c(C)n(Cc4ccco4)c(=O)cc3n2Cc2ccccc2)sc1C` [AVG-033], `Cc1c2c(=O)n(-c3nc4ccccc4s3)n(Cc3ccoc3)c2cc(=O)n1Cc1ccco1` [AVG-123] is higher in EC50: 1 to 10 µM for the first, 10 to 20 µM for the second.

`Cc1c2c(=O)n(-c3cc4ccccc4cn3)n(Cc3ccccc3)c2cc(=O)n1Cc1ccco1` [AVG-034] and `Cc1c2c(=O)n(-c3ccccn3)n(Cc3ccccc3)c2cc(=O)n1Cc1ccco1` [AVG-035] fall in the same range of EC50: 1 to 10 µM for the first, 1 to 10 µM for the second.

First: Cc1c2c(=O)n(-c3nc4ccccc4s3)n(Cc3ccccc3)c2cc(=O)n1Cc1ccccn1 [AVG-036]
Second: Cc1c2c(=O)n(-c3nc4ccccc4s3)n(Cc3ccccc3)c2cc(=O)n1Cc1cccnn1 [AVG-091]
The EC50 of the first is lower: 0.1 to 1 µM for the first, 1 to 10 µM for the second. The first is the more potent here.

First: Cc1c2c(=O)n(-c3nc4ccccc4s3)n(Cc3ccccc3)c2cc(=O)n1CC1CCNCC1 [AVG-038]
Second: Cc1c2c(=O)n(-c3nc4ccccc4s3)n(Cc3ccccc3)c2cc(=O)n1C1CCNCC1 [AVG-041]
The EC50 of the first is higher: > 20 µM for the first, 1 to 10 µM for the second. The second is the more potent here.

First: Cc1c2c(=O)n(-c3nc4ccccc4s3)n(Cc3ccccc3)c2cc(=O)n1CC1CCN(C)CC1 [AVG-039]
Second: Cc1c2c(=O)n(-c3nc4ccccc4s3)n(Cc3ccccc3)c2cc(=O)n1C1CCN(C)CC1 [AVG-042]
The EC50 of the first is higher: 10 to 20 µM for the first, 1 to 10 µM for the second.

First: Cc1c2c(=O)n(-c3nc4ccccc4s3)n(Cc3ccccc3)c2cc(=O)n1C1CCOCC1 [AVG-043]
Second: Cc1c2c(=O)n(-c3nc4ccccc4s3)n(Cc3ccccc3)c2cc(=O)n1CC1CCOC1 (centres unmarked) [AVG-075]
The EC50 of the first is higher: 10 to 20 µM for the first, 1 to 10 µM for the second.

`Cc1c2c(=O)n(-c3nc4ccccc4s3)n(CC(C)C)c2cc(=O)n1Cc1ccco1` [AVG-070] and `Cc1c2c(=O)n(-c3nc4ccccc4s3)n(Cc3ccco3)c2cc(=O)n1Cc1ccco1` [AVG-122] fall in the same range of EC50: 1 to 10 µM for the first, 1 to 10 µM for the second.

Compared with `Cc1c2c(=O)n(-c3nc4ccccc4s3)n(CC3CCCCO3)c2cc(=O)n1Cc1ccco1` (centres unmarked) [AVG-073], `Cc1c2c(=O)n(-c3nc4ccccc4s3)n(Cc3ccccc3)c2cc(=O)n1CC1CCCO1` (centres unmarked) [AVG-074] is higher in EC50: 1 to 10 µM for the first, 10 to 20 µM for the second.

First: Cc1c2c(=O)n(-c3nc4ccccc4s3)n(Cc3ccccc3)c2cc(=O)n1Cc1ccccc1Cl [AVG-076]
Second: Cc1c2c(=O)n(-c3nc4ccccc4s3)n(Cc3ccccc3)c2cc(=O)n1Cc1cccc(Cl)n1 [AVG-094]
The EC50 of the first is higher: 10 to 20 µM for the first, 0.1 to 1 µM for the second.

Compared with `Cc1c2c(=O)n(-c3ccccn3)n(Cc3ccccc3)c2cc(=O)n1Cc1ccc(Cl)cc1` [AVG-078], `Cc1c2c(=O)n(-c3ccccn3)n(Cc3ccccc3)c2cc(=O)n1Cc1ccccn1` [AVG-104] is higher in EC50: 0.1 to 1 µM for the first, 1 to 10 µM for the second.

Compared with `Cc1c2c(=O)n(-c3ccccn3)n(CC3CCOCC3)c2cc(=O)n1Cc1ccc(Cl)cc1` [AVG-079], `Cc1c2c(=O)n(-c3ccncn3)n(Cc3ccccc3)c2cc(=O)n1Cc1ccco1` [AVG-108] is lower in EC50: > 20 µM for the first, 1 to 10 µM for the second. The second is the more potent here.

Compared with `Cc1c2c(=O)n(-c3ccccc3)n(Cc3ccccc3)c2cc(=O)n1Cc1ccco1` [AVG-080], `Cc1c2c(=O)n(-c3cccnc3)n(Cc3ccccc3)c2cc(=O)n1Cc1ccco1` [AVG-081] is higher in EC50: 1 to 10 µM for the first, 10 to 20 µM for the second. The first is the more potent here.

`Cc1c2c(=O)n(-c3ccncc3)n(Cc3ccccc3)c2cc(=O)n1Cc1ccco1` [AVG-082] and `Cc1c2c(=O)n(-c3cnccn3)n(Cc3ccccc3)c2cc(=O)n1Cc1ccco1` [AVG-106] fall in the same range of EC50: 1 to 10 µM for the first, 1 to 10 µM for the second.

`Cc1c2c(=O)n(-c3nc4ccccc4s3)n(Cc3ccccc3)c2cc(=O)n1Cc1cccnc1` [AVG-088] and `Cc1c2c(=O)n(-c3nc4ccccc4s3)n(Cc3ccccc3)c2cc(=O)n1Cc1ccncc1` [AVG-089] fall in the same range of EC50: 1 to 10 µM for the first, 1 to 10 µM for the second.

Compared with `Cc1c2c(=O)n(-c3nc4ccccc4s3)n(Cc3ccccc3)c2cc(=O)n1Cc1ncccn1` [AVG-090], `Cc1c2c(=O)n(-c3nc4ccccc4s3)n(Cc3ccccc3)c2cc(=O)n1Cc1cnccn1` [AVG-093] is lower in EC50: 10 to 20 µM for the first, 0.1 to 1 µM for the second. The second is the more potent here.

`Cc1c2c(=O)n(-c3nc4ccccc4s3)n(Cc3ccccc3)c2cc(=O)n1Cc1ccncn1` [AVG-092] and `Cc1c2c(=O)n(-c3nc4ccccc4s3)n(Cc3ccccc3)c2cc(=O)n1Cc1c[nH]cn1` [AVG-099] fall in the same range of EC50: 1 to 10 µM for the first, 1 to 10 µM for the second.

`Cc1c2c(=O)n(-c3nc4ccccc4s3)n(Cc3ccccc3)c2cc(=O)n1Cc1ncco1` [AVG-096] and `Cc1c2c(=O)n(-c3nc4ccccc4s3)n(Cc3ccccc3)c2cc(=O)n1Cc1ncc[nH]1` [AVG-097] fall in the same range of EC50: 1 to 10 µM for the first, 1 to 10 µM for the second.

First: Cc1c2c(=O)n(-c3nc4ccccc4s3)n(Cc3ccccc3)c2cc(=O)n1Cc1nccn1C [AVG-098]
Second: Cc1c2c(=O)n(-c3nc4ccccc4s3)n(Cc3ccccc3)c2cc(=O)n1Cc1cn(C)cn1 [AVG-100]
The EC50 of the first is lower: 1 to 10 µM for the first, > 20 µM for the second. The first is the more potent here.

`Cc1c2c(=O)n(-c3nc4ccccc4s3)n(Cc3ccccc3)c2cc(=O)n1Cc1ccn[nH]1` [AVG-101] and `Cc1c2c(=O)n(-c3nc4ccccc4s3)n(Cc3ccccc3)c2cc(=O)n1Cc1ccnn1C` [AVG-102] fall in the same range of EC50: 1 to 10 µM for the first, 1 to 10 µM for the second.

`Cc1c2c(=O)n(-c3nc4ccccc4s3)n(Cc3ccccc3)c2cc(=O)n1Cc1ccn(C)n1` [AVG-103] and `Cc1c2c(=O)n(-c3nc4ccccc4s3)n(Cc3ccccn3)c2cc(=O)n1Cc1ccco1` [AVG-119] fall in the same range of EC50: 1 to 10 µM for the first, 1 to 10 µM for the second.

Compared with `Cc1c2c(=O)n(-c3ncccn3)n(Cc3ccccc3)c2cc(=O)n1Cc1ccco1` [AVG-105], `Cc1c2c(=O)n(-c3cccnn3)n(Cc3ccccc3)c2cc(=O)n1Cc1ccco1` [AVG-109] is lower in EC50: > 20 µM for the first, 1 to 10 µM for the second. The second is the more potent here.

Compared with `Cc1c2c(=O)n(-c3ccccc3)n(Cc3ccccc3)c2cc(=O)n1Cc1ccccn1` [AVG-107], `Cc1c2c(=O)n(-c3ccco3)n(Cc3ccccc3)c2cc(=O)n1Cc1ccccn1` [AVG-110] is higher in EC50: 1 to 10 µM for the first, 10 to 20 µM for the second.

`Cc1c2c(=O)n(-c3nc4ccccc4s3)n(Cc3ccncc3)c2cc(=O)n1Cc1ccco1` [AVG-121] and `Cc1c2c(=O)n(-c3nc4ccccc4s3)n(Cc3ncco3)c2cc(=O)n1Cc1ccco1` [AVG-124] fall in the same range of EC50: 1 to 10 µM for the first, 1 to 10 µM for the second.
